Data as given in patent US4668499A, “Process for manufacturing hydrogen peroxide” (E. I. Du Pont de Nemours and Company, priority 1986, dated 1987).
Read-outs that look alike come from different tables or passages of the source.

Tests used:
[1] = activity in anthrone reoxidation (disappearance of 2-butylanthrone in fortified working solution under oxygen; liquid chromatography); conditions: 0.1 weight % amine, 60° C.; for % Original Amount Remaining After 24 Hours: 2-Butylanthrone: 2 weight % 2-butylanthrone, control (no amine) 76
Excerpt: In each of the examples, oxidized and extracted plant working solution was used. […] The hydrogenation catalyst used was a supported noble-metal catalyst (palladium on alumina). The quinone working solution was a mixture of butyl and amyl anthraquinones and butyl and amyl tetrahydroanthraquinones dissolved in a mixed organic solvent comprised of alkylated benzenes (Cyclosol®) and an aliphatic alcohol (diisobutylcarbinol) together with inerts and degradation products.
To test for activity in anthrone reoxidation, a further portion of the oxidized and extracted working solution was fortified with 2 weight % 2-butylanthrone to represent a highly degraded condition. A catalytic amount (0.1 weight %) amine was added to the fortified working solution in a stoppered bottle which was filled with oxygen. The mixture was shaken for 24 hours at 60° C. under oxygen. The reoxidation of the 2-butylanthrone was followed by means of liquid chromatography.

pKa of the amines = format: physicochemical; conditions: in 50/50 methanol/water; acid titration using glass electrode
Excerpt: ^(1) pKa values in water from Patai, S., "The Chemistry of Amino
Groups,", Interscience Publishers, New York, New York (1968), Chapter 4.
^(2) pKa values in 50/50 methanol/water determined by acid
titration using glass electrode.

[2] = amine stability to oxidation under plant extraction-stage conditions (35 weight % aqueous hydrogen peroxide, 60° C., 24 hours; gas chromatography); conditions: 0.1 weight % amine in working solution, shaken with equal volume 35 weight % aqueous hydrogen peroxide
Excerpt: (§1) In each of the examples, oxidized and extracted plant working solution was used. […] The quinone working solution was a mixture of butyl and amyl anthraquinones and butyl and amyl tetrahydroanthraquinones dissolved in a mixed organic solvent comprised of alkylated benzenes (Cyclosol®) and an aliphatic alcohol (diisobutylcarbinol) together with inerts and degradation products.
(§2) To test for amine stability to oxidation under plant extraction-stage conditions, a catalytic amount (0.01 grams) of amine was added to 10 grams of oxidized and extracted working solution. This 0.1 weight % mixture was then shaken with an equal volume of 35 weight % aqueous hydrogen peroxide in a stoppered bottle at 60° C. for 24 hours. The loss of amine from the working solution was monitored by means of gas chromatography.

[3] = cited from earlier work
[4] = 35% aqueous hydrogen peroxide
Excerpt: as §1, §2

[5] = pilot plant cyclic anthraquinone process with amine addition
Method: A pilot plant facility, sized to be approximately 1/1000 that of a commercial unit, was charged with 1.5M lbs. of working solution withdrawn from the commercial unit. The working solution comprised a mixture of butyl and amyl anthraquinones and tetrahydroanthraquinones dissolved in a Cyclosol®/diisobutylcarbinol solvent. Using plant Pd/Al2 O3 slurry catalyst in the hydrogenator, operation of the pilot plant was commenced with a working solution flow of about 1.5 g.p.m. and at about 50° C. The average titer of the reduced working solution leaving the hydrogenator was about 38. "Titer" is an industrial term used as a measure of the depth or degree of reduction of the working solution, that is, the amount of hydroquinone formed expressed as LB. MOLS/10,000 gallons of working solution. Thirty-eight titer represents driving conditions for a commercial facility which is usually operated at 32 titer or less. As operating titer is increased, experience has shown that hydrogen peroxide production is increased but at the expense of increased quinone degradation and quinone use.
Over an initial operating period of two months in the pilot plant without amine addition, the anthrone content of the working solution increased steadily from 0.2 wt. % to 0.7 wt. % and was accompanied by a corresponding decrease in the quinone content of the working solution. Then, 0.05 wt. % of N,N-di-n-butylaniline was added to the pilot plant working solution hold tank. Over the next 36 hours a rapid drop in the anthrone content to about 0.2 wt. % was observed.
Operation of the pilot plant was continued at the 38 titer level for a further four and a half months with a daily production of about 250 lbs. hydrogen peroxide. The N,N-di-n-butylaniline content of the working solution was maintained at about 0.03 wt. % by means of small daily additions. […] Other operating parameters such as yield and product quality were unaffected.

[6] = in water, from Patai, The Chemistry of Amino Groups (1968), Chapter 4

Compound: CCN(CC)c1ccccc1C [Example 8, N,N--Diethyl-2-methylaniline]
- % Original Amount Remaining After 24 Hours: 2-Butylanthrone [1]: 15%
- pKa (pKa of the amines): 5.3
- % Original Amount Remaining After 24 Hours: Amine [2]: 43%

Compound: c1ccc(Nc2ccccc2)cc1 [Example 3, Diphenylamine, reference compound]
- % Original Amount Remaining After 24 Hours: 2-Butylanthrone [1]: 82%
- pKa [3, 6]: 0.9
- % Original Amount Remaining After 24 Hours: Amine [2]: 96%

Compound: CCCCCCN(CCCCCC)c1ccccc1 [Example 6, N,N--Di-n-hexyl-aniline]
- % Original Amount Remaining After 24 Hours: 2-Butylanthrone [1]: 36%
- pKa (pKa of the amines): 5.0
- % Original Amount Remaining After 24 Hours: Amine [2]: 86%

Compound: c1ccc(CN(Cc2ccccc2)Cc2ccccc2)cc1 [Example 4, Tribenzylamine, reference compound]
- % Original Amount Remaining After 24 Hours: 2-Butylanthrone [1]: 64%
- % Original Amount Remaining After 24 Hours: Amine [2]: 83%

Compound: CCCCN(CCCC)c1ccc(C)cc1 [Example 10, N,N--Di-n-butyl-4-methylaniline]
- % Original Amount Remaining After 24 Hours: 2-Butylanthrone [1]: 10%
- pKa (pKa of the amines): 5.8
- % Original Amount Remaining After 24 Hours: Amine [2]: 71%

Compound: Cc1cccc(N)c1 [Example 2, m-Toluidine]
- pKa ([3]; water): 4.7
- % Original Amount Remaining After 24 Hours: Amine [4]: 7%

Compound: CCCCN(CCCC)CCCC [Example 5, Tributylamine, reference compound]
- % Original Amount Remaining After 24 Hours: 2-Butylanthrone [1]: 0%
- Reaction was complete in (time) ([1]; 2-butylanthrone reoxidation): three
- pKa [3, 6]: 10.9
- % Original Amount Remaining After 24 Hours: Amine [2]: 2%

Compound: CCCCN(CCCC)c1ccccc1 [Example 7, N,N-di-n-butylaniline]
- % Original Amount Remaining After 24 Hours: 2-Butylanthrone [1]: 13%
- pKa [3, 6]: 6.2
- pKa (pKa of the amines): 5.2
- % Original Amount Remaining After 24 Hours: Amine [2]: 76%
- anthrone content of the working solution after amine addition ([5]; 0.05 wt. % amine added, over the next 36 hours, from 0.7 wt. %, about 50° C., titer about 38): about 0.2 wt. %
- hydrogenation activity ([5]; after addition of 0.05 wt. % amine): An improvement in hydrogenation activity was also noted
- loss of quinones ([5]; amine maintained at about 0.03 wt. %, four and a half months, 38 titer): no measurable loss of quinones

Compound: CCCCCCCCc1ccc(N(CCCC)CCCC)cc1 [Example 9, N,N--Di-n-butyl-4-octylaniline]
- % Original Amount Remaining After 24 Hours: 2-Butylanthrone [1]: 11%
- pKa (pKa of the amines): 5.6
- % Original Amount Remaining After 24 Hours: Amine [2]: 68%

Compound: CCCCN(CCCC)c1ccc(C)c(C)c1 [Example 12, N,N--Di-n-butyl-3,4-dimethylaniline]
- % Original Amount Remaining After 24 Hours: 2-Butylanthrone [1]: 8%
- pKa (pKa of the amines): 6.2
- % Original Amount Remaining After 24 Hours: Amine [2]: 61%

Compound: CCN(CC)c1cccc(C)c1 [Example 11, N,N--Diethyl-3-methylaniline]
- % Original Amount Remaining After 24 Hours: 2-Butylanthrone [1]: 5%
- pKa (pKa of the amines): 6.0
- % Original Amount Remaining After 24 Hours: Amine [2]: 55%
